Measurements: the supplement of paper PMC10307832

Columns and labels:
Assay in all cases: relative viability (nuclei count vs DMSO), 5 days (fraction); higher = more cells survive
[1] = compound: COc1cc2nc(N3CCCN(C)CC3)nc(NC3CCN(Cc4ccccc4)CC3)c2cc1OC + Cc1nc(NC(=O)N2CCC[C@H]2C(N)=O)sc1-c1ccnc(C(C)(C)C(F)(F)F)c1 [Alpelisib] (partner 2 µM)
Outline: (§1)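 Values are medians from duplicate plates. Each reflects relative viability, defined as the nuclei count of treated wells over that of vehicle wells. Lung cancer cell lines in 1536-well plates were pin-tool dosed one day after seeding with one drug alone or with a fixed anchor-drug dose plus five library-drug doses (not always all listed) in √10 steps, then fixed, stained and imaged at 4× after 5 days.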

[2] = compound: COc1cc2nc(N3CCCN(C)CC3)nc(NC3CCN(Cc4ccccc4)CC3)c2cc1OC + O=C(CCCCCCC(=O)Nc1ccccc1)NO [Vorinostat] (partner 1 µM)
Outline: as §1

[3] = compound: Cc1cc([C@@H](C)Nc2ccccc2C(=O)O)c2nc(N3CCOCC3)cc(=O)n2c1 [AZD6482] + C[C@]1(O)C[C@@H](c2nc(-c3ccc4ccc(-c5ccccc5)nc4c3)c3c(N)nccn32)C1 [Linsitinib] (partner 1 µM)
Outline: as §1

[4] = compound: Cc1cc([C@@H](C)Nc2ccccc2C(=O)O)c2nc(N3CCOCC3)cc(=O)n2c1 [AZD6482] + Cc1nc(Nc2ncc(C(=O)Nc3c(C)cccc3Cl)s2)cc(N2CCN(CCO)CC2)n1 [Dasatinib] (partner 0.075 µM)
Outline: as §1

UMC-11
relative viability ([1]; first compound 0.2 µM): 0.953
relative viability ([1]; first compound 0.6325 µM): 0.973
relative viability ([1]; first compound 2 µM): 1.15
relative viability ([1]; first compound 6.325 µM): 1.01
relative viability ([2]; first compound 0.2 µM): 0.361
relative viability ([2]; first compound 0.6325 µM): 0.453
relative viability ([2]; first compound 2 µM): 0.431
relative viability ([2]; first compound 6.325 µM): 0.317
relative viability ([3]; first compound 0.08 µM): 0.959
relative viability ([3]; first compound 0.253 µM): 0.962
relative viability ([3]; first compound 0.8 µM): 0.987
relative viability ([3]; first compound 2.53 µM): 0.787
relative viability ([3]; first compound 8 µM): 1
relative viability ([4]; first compound 0.08 µM): 0.457
relative viability ([4]; first compound 0.253 µM): 0.48
relative viability ([4]; first compound 0.8 µM): 0.472
relative viability ([4]; first compound 2.53 µM): 0.416
relative viability ([4]; first compound 8 µM): 0.559
